Values quoted from earlier work in patent US20020155976A1, “Cleaning compositions” (Unilever Home & Personal Care USA, Division of Conopco, Inc., priority 2000, published 2002).
Read-outs that look alike come from different tables or passages of the source.

[1] = at 20° C., other common materials, by contrast

| Compound | Water Solubility [1] [g/100 g] | Water Solubility (grams of solid to form a saturated solution in 100 grams of water at 20° C., highly water-soluble materials) [g/100 g] |
| --- | --- | --- |
| O=BO[O-].[Na+] [Sodium perborate anhydrous] | 3.7 |  |
| O=P(O)(O)OP(=O)(O)OP(=O)(O)O [Sodium tripolyphosphate anhydrous] | 15 |  |
| NC(N)=O [Urea] |  | >100 |
